Results published in US20130123282A1, “SOLID STATE FORMS OF LINAGLIPTIN” (priority 2011, published 2013).

Assays:
Assay type in all cases: physicochemical
[1] = Polymorphic stability on storage under different relative humidity levels (XRD)
Source text: In addition to the properties mentioned above, Form XXII is particularly important as it can be obtained and exist at ambient conditions as single, pure phase. […] is also particularly advantageous, for example, in being non-hygroscopic and polymorphic stable under different relative humidity levels.
(§1) In addition to the properties mentioned above, Form XXII is particularly important as it can be obtained and exist at ambient conditions as single, pure phase. […] Form XXII is also non-hygroscopic and polymorphic stable under different relative humidity levels.
The XRD analyses were performed on ARL (SCINTAG) powder X-Ray diffractometer model X′TRA equipped with a solid state detector. Copper radiation of 1.5418 Å was used. Scanning parameters: range: 2-40 degrees two-theta; scan mode: continuous scan; step size: 0.05°, and a rate of 3 deg/min. The position of the silicon (111) peak was corrected to be 28.45 degrees two theta. The positions of the XRD peaks for the Linagliptin forms were corrected respectively. […]

[2] = Polymorphic stability when slurried in solvents; settings: slurrying in different solvents, such as acetonitrile and ethanol
Source text: as §1

[3] = Hygroscopicity according to Ph.Eur. chapter 5.11; settings: non-hygroscopic = less than 0.2% (w/w) absorption of water, Ph.Eur. 5.11
Source text: As used herein, and unless stated otherwise, the term “non-hygroscopic” in relation to crystalline Linagliptin refers to less than 0.2% (w/w) absorption of water, for example atmospheric water, by the crystalline Linagliptin, as determined according to Ph.Eur. chapter 5.11 (“Hygroscopicity”)

SMILES | solid form found by XRD after exposure to humidity ([1]; exposed to 100% relative humidity for 7 days) | polymorphic transformation on storage ([1]; stored for 7 days at room temperature under 0-80% relative humidity) | polymorphic transformation on slurrying [2] | polymorphic transformation on storage ([1]; stored for 7 days at room temperature under 0-100% relative humidity) | hygroscopicity [3]
CC#CCn1c(N2CCC[C@@H](N)C2)nc2c1c(=O)n(Cc1nc(C)c3ccccc3n1)c(=O)n2C [Form X, Linagliptin] | Linagliptin form XII | no polymorphic transformation is observed | – | – | –
CC#CCn1c(N2CCC[C@@H](N)C2)nc2c1c(=O)n(Cc1nc(C)c3ccccc3n1)c(=O)n2C [Form XXII, Linagliptin] | – | – | do not transform to other forms | no polymorphic transformation is observed | non-hygroscopic
